Here are results for one molecule from patent publication US20240197687A1, “METHODS OF TREATING NEUROINFLAMMATION AND INHIBITING MONOAMINE OXIDASE-A AND RESTORING/UPREGULATING/INCREASING IL-13 AND AND PGC-1 BY ADMINISTERING ORAL DOSAGE FORM CONTAINING MICRONIZED AND NONMICRONIZED PARTICULATE METAXALONE, ALGINIC ACID AND PROPYLENE GLYCOL ALGINATE” (Primus Pharmaceuticals, Inc., priority 2022, published 2024).

The structures appear in SMILES notation.

Series [1] has as its system HMC3 microglial cells. The series can be described thus: ELISA of cytokines in cell culture supernatants of IL-1β-stimulated HMC3 cells. The format is cell-based, Human. The conditions noted are these: metaxalone 10, 20, 40 μg/mL, dose-dependent, p<0.0001 vs. IL-1β. As for the experimental part: Human microglial HMC3 cell line (CRL-3304) was obtained from ATCC (American Type Culture Collection; Manassas, VA, USA). Cells were cultured in Eagle's minimum essential medium (EMEM) with a supplement of 10% fetal bovine serum (FBS) and 1% antibiotic mixture, and were incubated at 37° C. with 5% of CO2. Both medium and supplements were provided by ATCC (Manassas, VA, USA). Cells were seeded in 6-well plates at a density of 4×10^5 cells/well. A stock solution of metaxalone (Sigma Aldrich, Milan, Italy) was prepared by dissolving metaxalone in DMSO. Sixteen hours after plating (time 0), metaxalone was added at the doses of 10, 20, and 40 μg/mL 1 h following IL-1β stimulation (5 ng/mL; Sigma Aldrich, Milan, Italy). After 6 h cells were harvested for mRNA evaluation. In a separate set of plates, cells were incubated for 24 h before MTT assay to evaluate cell viability. The dose-response curve for IL-1β stimulation can be found at Supplemental FIG. S1. Measurements of Cytokines by Enzyme-Linked Immunosorbent Assay (ELISA). Tumor necrosis factor-alpha (TNF-α), interleukin-6 (IL-6) and interleukin-13 (IL-13) were measured in the cell culture supernatants. The products under investigation were measured using enzyme-linked immunosorbent assay (ELISA) kits (Abcam, Cambridge, UK), in agreement with the instructions reported by the manufacturer. All the samples were evaluated in duplicate and the obtained results were interpolated with the pertinent standard curves. To evaluate the sample, the means of the duplicated sample were used and expressed in pg/mL.

In series [2] the test system is HMC3 microglial cells. The series can be described thus: Western blot protein levels in IL-1β-stimulated HMC3 cells. The settings on record: metaxalone 10, 20, 40 μg/mL, p<0.0001 vs. IL-1β. The format is cell-based, Human. The method, then: Western Blot Analysis. HMC3 cells were homogenized in RIPA buffer (25 mM Tris/HCl, pH 7.4; 1.0 mM EGTA; and 1.0 mM EDTA) with 1% of NP40, 0.5% of phenyl methylsulfonyl fluoride (PMSF), aprotinin, and leupeptin and pepstatin (10 μg/mL each) to perform protein extraction. Lysates were centrifuged at 15,000×g for 15 min at 4° C. and the supernatant was collected for protein determination using a specific kit (Bio-Rad DC; Bio-Rad, Richmond, CA, USA). Samples were denatured in a reducing buffer (62 mM Tris pH 6.8, 10% glycerol, 2% SDS, 5% β-mercaptoethanol, and 0.003% bromophenol blue) and proteins were separated by electrophoresis on SDS polyacrylamide gels. Following electrophoresis, samples were transferred onto a PVDF membrane (Amersham, Little Chalfont, UK) in a transfer buffer (39 mM glycine, 48 mM Tris pH 8.3, and 20% methanol) at 200 mA for 1 h. The obtained membranes were incubated with 5% non-fat dry milk in TBS/0.1% Tween for 1 h at room temperature, washed 3 times in TBS/0.1% Tween, and incubated with primary antibodies to detect pNF-κB, PPARγ, PGC-1α (Cell Signaling, Danvers, MA, USA), NRF-2, and MAO-A (Abcam, Cambridge, UK), diluted in TBS/0.1% Tween overnight at 4° C. The day after, following 3 washes with TBS/0.1% Tween, membranes were incubated with secondary peroxidase-conjugated goat anti-mouse and anti-rabbit antibodies (KPL, Gaithersburg, MD, USA) for 1 h at room temperature. After washing, membranes were analyzed by the enhanced chemiluminescence system (LumiGlo reserve; Seracare, Milford, MA, USA). The protein signal was detected and quantified by scanning densitometry using a bio-image analysis system (C-DiGit, Li-cor, Lincoln, NE, USA). The results were expressed as relative integrated intensity and β-actin (Cell Signaling, Danvers, MA, USA) was used to confirm equal protein loading. (See, […]. et al. β-Caryophyllene Inhibits Cell Proliferation through a Direct Modulation of CB2 Receptors in Glioblastoma Cells. Cancers 2020, 12, 1038).
On the technique in general: In western blotting, separated proteins are transferred to a membrane and probed.

Another series has as its system HMC3 cells. In words: Malonaldehyde (MDA) assay, lipid peroxidation in HMC3 cells. The conditions noted are these: IL-1β-stimulated HMC3 cells; metaxalone 10, 20, 40 μg/mL; p<0.0001 vs. IL-1β. The class given is cell-based, Human. The text has this: Malonaldehyde Assay. Metaxalone antioxidant effects were examined in HMC3 cells by measuring malonaldehyde (MDA) levels as a marker of lipid peroxidation, as previously described in detail. (See, Ceravolo, I. Et al., Health Potential of Aloe vera against Oxidative Stress Induced Corneal Damage: An “In Vitro” Study. Antioxidants 2021, 10, 318).

For series [3], the system named is CYP1A2, CYP2B6, CYP2C9, CYP2C19, CYP2D6, CYP2E1, CYP3A. The settings on record: cited from earlier work.
The target in series [4] is T1, monoamine oxidase A (MAO-A) (Homo sapiens, UniProt P21397).
T1 sequence (P21397 1-527): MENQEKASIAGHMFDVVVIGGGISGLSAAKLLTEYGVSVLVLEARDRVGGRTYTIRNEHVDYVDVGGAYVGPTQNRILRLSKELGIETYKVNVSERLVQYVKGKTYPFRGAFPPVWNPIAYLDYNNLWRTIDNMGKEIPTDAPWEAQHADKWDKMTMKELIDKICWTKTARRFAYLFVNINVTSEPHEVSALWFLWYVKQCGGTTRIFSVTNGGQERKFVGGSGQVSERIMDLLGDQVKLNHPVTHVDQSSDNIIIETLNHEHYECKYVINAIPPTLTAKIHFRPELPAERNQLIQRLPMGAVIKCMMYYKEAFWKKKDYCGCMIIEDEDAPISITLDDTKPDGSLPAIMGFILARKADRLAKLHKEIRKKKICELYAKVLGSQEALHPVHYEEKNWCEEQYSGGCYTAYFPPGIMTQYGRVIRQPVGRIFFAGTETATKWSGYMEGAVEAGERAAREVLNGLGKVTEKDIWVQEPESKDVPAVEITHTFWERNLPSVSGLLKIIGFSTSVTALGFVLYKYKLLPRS
The settings on record: cited from earlier work.

In the case of `Cc1cc(C)cc(OCC2CNC(=O)O2)c1` (stereo not drawn) [metaxalone, 5-[(3,5-dimethylphenoxy)methyl]-2-oxazolidinone], in the series with HMC3 microglial cells [1] (supernatant of IL-1β-stimulated HMC3 cells (IL-6 increased by IL-1β)), the IL-6 protein levels entry was “significantly reverted”. The IL-13 protein levels entry with HMC3 microglial cells [1] (supernatant of IL-1β-stimulated HMC3 cells (IL-13 decreased by IL-1β)) is on record as “significantly reverted”. For the same molecule, the TNF-α protein levels result in the series with HMC3 microglial cells [1] (supernatant of IL-1β-stimulated HMC3 cells (TNF-α increased by IL-1β)) is given as “significantly reverted”. Also, the NRF-2 protein levels result in the series on HMC3 microglial cells [2] (dose-dependent) is “significantly increased”. In the series with HMC3 microglial cells [2], the PGC-1α protein expression entry is “stimulated”, the PPARγ protein expression entry is “stimulated” and the p-NF-κB protein levels entry is on record as “blunted the increase”. Besides, the MDA levels result with HMC3 cells is “significant reduction”. Further, in series [3], the CYP induction entry is “inducer of CYP1A2 and CYP3A4”; the CYP inhibition result was “inhibitor of CYP1A2, CYP2B6, CYP2C9, CYP2C19, CYP2D6, CYP2E1, and CYP3A”; the CYP substrate status result was “substrate of CYP1A2 and CYP2C19”. Further, in series [4], the MAO-A inhibition result is listed as “reported to inhibit”.
